The results in this text go back to patent US20050256210A1, “Compounds with activity at estrogen receptors” (priority 2004, published 2005).

Where two headings read alike, the source gives them in different places.

In series [1] the target is T1, Estrogen receptor alpha (ERα) (Homo sapiens, UniProt P03372).
T1 construct: expressed in transfected cells; host or cells: NIH3T3
T1 sequence (P03372 1-595): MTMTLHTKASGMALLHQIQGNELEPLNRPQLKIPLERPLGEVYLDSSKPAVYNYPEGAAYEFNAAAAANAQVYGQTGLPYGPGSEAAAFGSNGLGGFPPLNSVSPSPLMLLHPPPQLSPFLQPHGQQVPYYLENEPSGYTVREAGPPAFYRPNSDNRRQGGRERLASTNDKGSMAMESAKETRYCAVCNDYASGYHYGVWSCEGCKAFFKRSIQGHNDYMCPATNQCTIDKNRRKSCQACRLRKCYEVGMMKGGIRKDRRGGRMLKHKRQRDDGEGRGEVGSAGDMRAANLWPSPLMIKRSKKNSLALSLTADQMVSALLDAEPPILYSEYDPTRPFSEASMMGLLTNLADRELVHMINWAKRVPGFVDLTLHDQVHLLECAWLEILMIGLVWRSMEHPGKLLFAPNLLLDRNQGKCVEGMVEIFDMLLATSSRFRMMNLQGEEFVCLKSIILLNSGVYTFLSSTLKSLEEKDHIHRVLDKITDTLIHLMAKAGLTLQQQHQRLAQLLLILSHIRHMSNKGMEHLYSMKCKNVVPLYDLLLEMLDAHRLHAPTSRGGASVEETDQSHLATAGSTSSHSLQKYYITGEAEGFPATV
The series can be described thus: Receptor Selection and Amplification Technology (R-SAT) functional receptor assay, ERα. The series is classed as cell-based. The note with it: for Emax / % Efficacy ERα: NIH3T3 cells, efficacy relative to the reference ligand Estrone; for EC50 / pEC50 ERα: transfected NIH3T3 cells, agonist activity. How it is done: (§1) The functional receptor assay, Receptor Selection and Amplification Technology (R-SAT™), was used with minor modifications from the procedure described in U.S. Pat. No. 5,707,798, which is hereby incorporated by reference in its entirety, to screen compounds for efficacy at the Estrogen receptors alpha and beta (ERα, ERβ). NIH3T3 cells were grown in roller bottles to 70-80% confluence. Cells were then transfected for 12-16 h with plasmid DNAs using Polyfect (Qiagen Inc.) as per the manufacturer's protocol. R-SAT assays were typically performed by transfecting 30 ug/bottle of receptor and 50 ug/bottle of β-galactosidase plasmid DNA. All receptor and helper constructs used were in mammalian expression vectors. Helpers are defined as signaling molecules that modulate both ligand-dependent and/or ligand-independent function of the ER receptors, typically co-activators and kinases. NIH3T3 cells were transfected for 12-16 h, then trypsinized and frozen in DMSO. Frozen cells were later thawed, plated at 10,000-40,000 cells per well of a 96 well plate containing 4-(1-Phenyl-cyclohexyl)-phenol. Cells were then grown in a humidified atmosphere with 5% ambient CO2 for five days. Media was then removed from the plates and marker gene activity was measured by the addition of the β-galactosidase substrate o-nitrophenyl β-D-galactopyranoside (ONPG, in PBS with 5% NP-40). The resulting colorimetric reaction was measured in a spectrophotometric plate reader (Titertek Inc.) at 420 nM. All data were analyzed using the computer program XLFit (IDBSm).
These experiments provided a molecular profile, or fingerprint, for each agent tested at the human Estrogen receptors.

Series [2] deals with T2, Estrogen receptor beta (ERβ) (Homo sapiens, UniProt Q92731).
T2 construct: expressed in transfected cells; host or cells: NIH3T3
Description: Receptor Selection and Amplification Technology (R-SAT) functional receptor assay, ERβ. The series is classed as cell-based. On the procedure: as §1, with “NIH3T3” for “The functional receptor assay, Receptor Selection and Amplification Technology (R-SAT™), was used with minor modifications from the procedure described in U.S. Pat. No. 5,707,798, which is hereby incorporated by reference in its entirety, to screen compounds for efficacy at the Estrogen receptors alpha and beta (ERα, ERβ). NIH3T3”, “The resulting colorimetric reaction was measured in a spectrophotometric plate reader (Titertek Inc.) at 420 nM.” left out

For another series, the system named is male Sprague-Dawley rats. Description: CFA induced arthritis rat model assay (hot plate latency, paw thickness). The class given is in vivo. To be noted: 1.0, 3.0 or 10 mg/kg s.c. daily from Day 4 after CFA. On the procedure: Naïve, male Sprague-Dawley rats (225-250 g; n=6 per group) served as subjects. Response latencies to a noxious thermal stimulus were measured using the 52° C. hot plate test. After obtaining baseline responses, 0.1 ml of Freund's complete adjuvant (CFA) or vehicle (inactivated CFA (iCFA)) was injected into the dorsal surface of the left hind paw. Response latencies were again measured 4 days following CFA (or iCFA) administration, a time point when thermal hyperalgesia is stable. A significant decrease in the hot plate latency was interpreted as the presence of thermal hyperalgesia. Following testing, thickness of both hind paws were measured (using a micrometer) in order to quantify possible edema formation at the injection site. Various doses of 4-(1-Phenyl-cyclohexyl)-phenol (ERB-002) (1.0, 3.0 or 10 mg/kg) or vehicle (DMSO) were administered (s.c.) following testing on Day 4, and then daily following testing for a period of 3 days.

In series [3] the test system is immature female Sprague-Dawley rats. Description: Uterotrophic in vivo assay (uterine weight). The note with it: 10, 30 or 100 mg/kg s.c. daily for 3 days; FIG. 4. Also on record: species or system rat. How it is done: The effect of ERB-002 on uterine weight was assessed based on the previously published method of Harris et al., Endocrin, 2003, 143:4172, which is hereby incorporated by reference in its entirety. Naïve, female Sprague-Dawley rats (30-40 g; n=6 per group) served as subjects. Rats received daily subcutaneous injections of vehicle (100% DMSO), PPT (1.0 mg/rat)), a reportedly selective ERα agonist (Stauffer, 2000, J Med Chem 43:4934) or various doses of ERB-002 (10, 30 or 100 mg/kg) for a total of 3 days. Approximately 24 hours after the final injection, the rats were sacrificed, the uteri removed, trimmed of adhesions, fluid expelled and then weighed. Uterine weight was normalized as a percentage of total body weight by the following formula: % TBW=[(uterus weight (in mg)[…])/(body weight (in g))]*100.

[4] abbreviates: R-SAT, NIH3T3 cells, efficacy relative to the reference ligand Estrone, read-out: % Efficacy ERβ.
The mark [5] stands for this setting: R-SAT, transfected NIH3T3 cells, agonist activity, read-out: pEC50 ERβ (converted).
Setting [6] is: R-SAT, NIH3T3 cells, efficacy relative to the reference ligand Estrone.
Setting [7] is: R-SAT, transfected NIH3T3 cells, agonist activity.

T2 sequence (Q92731 whole entry): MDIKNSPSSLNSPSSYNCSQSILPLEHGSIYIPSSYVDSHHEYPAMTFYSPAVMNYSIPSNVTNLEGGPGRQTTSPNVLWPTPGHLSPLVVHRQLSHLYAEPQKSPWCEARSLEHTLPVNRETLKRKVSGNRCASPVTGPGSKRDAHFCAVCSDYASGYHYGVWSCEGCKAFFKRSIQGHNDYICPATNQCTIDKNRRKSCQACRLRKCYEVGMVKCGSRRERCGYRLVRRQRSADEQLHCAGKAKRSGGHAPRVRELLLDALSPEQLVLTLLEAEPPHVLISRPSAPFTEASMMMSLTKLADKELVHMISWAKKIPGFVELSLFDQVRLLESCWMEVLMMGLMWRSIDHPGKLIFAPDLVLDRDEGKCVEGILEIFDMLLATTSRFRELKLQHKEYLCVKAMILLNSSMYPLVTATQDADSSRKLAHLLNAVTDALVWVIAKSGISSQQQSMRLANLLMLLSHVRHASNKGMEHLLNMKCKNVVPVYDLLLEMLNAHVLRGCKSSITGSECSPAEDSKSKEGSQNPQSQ

For `Oc1ccc(C2(c3ccc(F)cc3F)CCCCC2)cc1` [ERB-011, 4-(1-(2,4-Difluoro-phenyl)-cyclohexyl)-phenol], the Emax in series [1] came to 20%; in series [2] (setting [4]), 37%. In addition, the EC50 in series [1] is more than 10000 nM; in series [2] (setting [5]), 79.4 nM.
The matching figures for `CC(C)C1CCC(c2ccc(O)cc2)(c2cccc(F)c2)CC1` (stereo not shown) [ERB-037, 4-[1-(3-Fluoro-phenyl)-4-isopropyl-cyclohexyl]-phenol]: 114%, 48%, 1580 nM and 7.94 nM.
In the same order, the values of `Oc1ccc(C2(c3ccccc3)CCCCCCC2)cc1` [ERB-017, 4-(1-Phenyl-cyclooctyl)-phenol] are 80%, 46%, 251 nM and 6.31 nM.
Take `Oc1ccc(C2(c3ccccc3)CCCCC2)cc1` [ERB-002, 4-(1-Phenylcyclohexyl)phenol]: the Emax in series [1] came to 50%; in series [2] (NIH3T3, read-out: % Efficacy ERβ), 85%. Moreover, the EC50 was 3160 nM in series [1] and 63.1 nM in series [2]. In series [2] (R-SAT, Table 1 and FIG. 1), the “selectivity of activation of ERβ relative to ERα” value is recorded as “selectively activates Estrogen beta receptor (ERβ) relative to the Estrogen alpha receptor (ERα)”. Also, the “reversal of thermal hyperalgesia (52° C. hot plate latency)” value with male Sprague-Dawley rats (FIG. 2) is “dose dependent reversal of thermal hyperalgesia”. Further, the “reversal of edema (paw thickness)” value in the series on male Sprague-Dawley rats (FIG. 3) is “dose dependent reversal of edema”. Besides, the “uterotrophic properties (uterine weight as % of total body weight)” value in series [3] was “does not display uterotrophic properties”.
Consider `Oc1ccc(C2(c3ccc(F)cc3)CCC(C(F)(F)F)CC2)cc1` (stereo not shown) [ERB-031, 4-(1-(4-Flourophenyl)-[4-(trifluoromethyl)-cyclohexyl])-phenol], for which, in series [1], the “% Efficacy ERα” value worked out at 124% and the “pEC50 ERα” value was 5.6. For the same molecule, the “% Efficacy ERβ” value in series [2] (setting [6]) is listed as 62%. The “pEC50 ERβ” value in series [2] (setting [7]) stood at 6.1.
`Oc1ccc(C2(c3ccccc3)CCC(C(F)(F)F)CC2)cc1` (stereo not shown) [ERB-030, 4-(1-Phenyl-[4-(trifluoromethyl)-cyclohexyl])-phenol]: the Emax in series [1] was determined as 95%; in series [2] (setting [4]), 46%. For the same molecule, the EC50 in series [1] was 2510 nM; in series [2] (setting [5]), 63.1 nM.
The matching figures for `Oc1ccc(C2(c3ccc(F)cc3)CCCCCC2)cc1O` [ERB-014, 4-[1-(4-Fluoro-phenyl)-cycloheptyl]-benzene-1,2-diol]: 120%, 87%, 1260 nM and 79.4 nM.
Turning to `Oc1ccc(C2(c3ccccc3)CCCCCC2)cc1` [ERB-012, 4-(1-Phenyl-cycloheptyl)-phenol], the Emax in series [1] stood at 69%; in series [2] (setting [4]), 41%. Moreover, the results for the EC50 in series [1] and in series [2] (setting [5]) were 631 nM and 126 nM, respectively.
Take `Oc1ccc(C2(c3ccc(F)c(F)c3)CCCCC2)cc1` [ERB-009]: in series [1], the “% Efficacy ERα” value was determined as 100% and the “pEC50 ERα” value was determined as 5.4. Besides, the “% Efficacy ERβ” value in series [2] (setting [6]) turned out to be 138%. Also, the “pEC50 ERβ” value in series [2] (setting [7]) is recorded as 7.2.
